Among the data in patent US8063048B2, “Acetylenyl-pyrazolo-pyrimidine derivatives” (Hoffmann-La Roche Inc., priority 2005, dated 2011) are melting point values, retold here.

For `O=S(=O)(NC(CO)CO)c1ccc(C#Cc2cnn3c(C(F)(F)F)cc(-c4ccc(C(F)(F)F)cc4)nc23)s1` [Example 163, 5-[7-Trifluoromethyl-5-(4-trifluoromethyl-phenyl)-pyrazolo[1,5-a]pyrimidin-3-ylethynyl]-thiophene-2-sulfonic acid (2-hydroxy-1-hydroxymethyl-ethyl)-amide], the melting point – broadly, the temperature of the solid-liquid transition – came to 247 °C. The compound `Cc1ccc(C#Cc2cnn3c(C(F)(F)F)cc(-c4ccc(C(F)(F)F)cc4)nc23)cc1S(=O)(=O)NCCO` [Example 34, N-(2-Hydroxy-ethyl)-2-methyl-5-[7-trifluoromethyl-5-(4-trifluoromethyl-phenyl)-pyrazolo[1,5-a]pyrimidin-3-ylethynyl]-benzenesulfonamide] gave a melting point of 174 to 175 °C. Compound `CC(C)(C)NS(=O)(=O)c1ccc(C#Cc2cnn3c(C(F)(F)F)cc(-c4ccc(C(F)(F)F)cc4)nc23)s1` [Example 109, 5-[7-Trifluoromethyl-5-(4-trifluoromethyl-phenyl)-pyrazolo[1,5-a]pyrimidin-3-ylethynyl]-thiophene-2-sulfonic acid tert-butylamide] displayed a melting point of 226 °C. To `CC(C)(CO)NS(=O)(=O)c1cncc(C#Cc2cnn3c(C4CC4)cc(-c4ccc(C(F)(F)F)cc4)nc23)c1` [Example 78, 5-[7-Cyclopropyl-5-(4-trifluoromethyl-phenyl)-pyrazolo[1,5-a]pyrimidin-3-ylethynyl]-pyridine-3-sulfonic acid (2-hydroxy-1,1-dimethyl-ethyl)-amide] belongs 190 to 191 °C; to `NS(=O)(=O)c1ccc(C#Cc2cnc3c(C(F)(F)F)cc(-c4ccc(C(F)(F)F)cc4)nn23)s1` [Example 236, 5-[8-Trifluoromethyl-6-(4-trifluoromethyl-phenyl)-imidazo[1,2-b]pyridazin-3-ylethynyl]-thiophene-2-sulfonic acid amide], 261 to 263 °C; to `NS(=O)(=O)c1cccc(C#Cc2cnn3c(C(F)(F)F)cc(-c4ccc(Cl)c(Cl)c4)nc23)c1` [Example 93, 3-[5-(3,4-Dichloro-phenyl)-7-trifluoromethyl-pyrazolo[1,5-a]pyrimidin-3-ylethynyl]-benzenesulfonamide], 230 to 231 °C. To `CN(C)CCNS(=O)(=O)c1cccc(C#Cc2cnn3c(C(F)(F)F)cc(-c4ccc(C(F)(F)F)cc4)nc23)c1` [Example 133, N-(2-Dimethylamino-ethyl)-3-[7-trifluoromethyl-5-(4-trifluoromethyl-phenyl)-pyrazolo[1,5-a]pyrimidin-3-ylethynyl]-benzenesulfonamide] belongs 146 to 147 °C.

With `NS(=O)(=O)c1ccc(C#Cc2cnn3c(C(F)F)cc(-c4cccc(C(F)(F)F)c4)nc23)cc1` [Example 176, 4-[7-Difluoromethyl-5-(3-trifluoromethyl-phenyl)-pyrazolo[1,5-a]pyrimidin-3-ylethynyl]-benzenesulfonamide], the melting point is 245 °C.

In turn, `NS(=O)(=O)c1cc(C#Cc2cnn3c(C(F)F)cc(-c4cccc(C(F)(F)F)c4)nc23)c(F)cc1F` [Example 166, 5-[7-Difluoromethyl-5-(3-trifluoromethyl-phenyl)-pyrazolo[1,5-a]pyrimidin-3-ylethynyl]-2,4-difluoro-benzenesulfonamide] had a melting point of 277 °C.

`NC(=O)c1ccc(C#Cc2cnn3c(C(F)F)cc(-c4ccc(C(F)(F)F)cc4)nc23)cn1` [Example 206, 5-[7-Difluoromethyl-5-(4-trifluoromethyl-phenyl)-pyrazolo[1,5-a]pyrimidin-3-ylethynyl]-pyridine-2-carboxylic acid amide] displayed a melting point of 276 to 277 °C. `O=S(=O)(c1cccc(C#Cc2cnn3c(C(F)F)cc(-c4ccc(C(F)(F)F)cc4)nc23)c1)N1CCOCC1` [Example 144, 7-Difluoromethyl-3-[3-(morpholine-4-sulfonyl)-phenylethynyl]-5-(4-trifluoromethyl-phenyl)-pyrazolo[1,5-a]pyrimidine]: the melting point lay in the range of 175 to 176 °C.

The compound `Cc1cc(-c2ccc(C(F)(F)F)cc2)nc2c(C#Cc3ccc(S(N)(=O)=O)s3)cnn12` [Example 152, 5-[7-Methyl-5-(4-trifluoromethyl-phenyl)-pyrazolo[1,5-a]pyrimidin-3-ylethynyl]-thiophene-2-sulfonic acid amide] yielded a melting point of 214 to 215 °C. Turning to `Nc1ccc(C#Cc2cnn3c(C(F)F)cc(-c4cccc(C(F)(F)F)c4)nc23)cn1` [Example 254, 5-[7-Difluoromethyl-5-(3-trifluoromethyl-phenyl)-pyrazolo[1,5-a]pyrimidin-3-ylethynyl]-pyridin-2-ylamine], the melting point is 164 °C. On to `Cc1cc(-c2ccc(Cl)cc2)cn2c(C#Cc3ccc(S(N)(=O)=O)s3)cnc12` [Example 211, 5-[6-(4-Chloro-phenyl)-8-methyl-imidazo[1,2-a]pyridin-3-ylethynyl]-thiophene-2-sulfonic acid amide], for which the melting point lay in the range of 265 to 266 °C. To `Cc1cc(C#Cc2cnn3c(C(F)F)cc(-c4ccc(C(F)(F)F)cc4)nc23)cnc1N` [Example 142, 5-[7-Difluoromethyl-5-(4-trifluoromethyl-phenyl)-pyrazolo[1,5-a]pyrimidin-3-ylethynyl]-3-methyl-pyridin-2-ylamine] belongs 194 to 195 °C; to `NS(=O)(=O)c1ccc(C#Cc2cnn3c(C(F)F)cc(-c4ccc(C(F)(F)F)cc4)nc23)c(F)c1` [Example 48, 4-[7-Difluoromethyl-5-(4-trifluoromethyl-phenyl)-pyrazolo[1,5-a]pyrimidin-3-ylethynyl]-3-fluoro-benzenesulfonamide], 230 to 232 °C; to `NS(=O)(=O)c1ccc(C#Cc2cnn3c(C4CC4)cc(-c4ccc(Cl)c(Cl)c4)nc23)cc1` [Example 88, 4-[7-Cyclopropyl-5-(3,4-dichloro-phenyl)-pyrazolo[1,5-a]pyrimidin-3-ylethynyl]-benzenesulfonamide], 259 to 261 °C. `NS(=O)(=O)c1cncc(C#Cc2cnn3ccc(-c4ccc(Cl)cc4)nc23)c1` [Example 73, 5-[5-(4-Chloro-phenyl)-pyrazolo[1,5-a]pyrimidin-3-ylethynyl]-pyridine-3-sulfonic acid amide]: the melting point was in the range of 248 to 249 °C. In turn, `O=S(=O)(c1ccc(C#Cc2cnn3c(C(F)F)cc(-c4ccc(C(F)(F)F)cc4)nc23)s1)N(CCO)CCO` [Example 269, 5-[7-Difluoromethyl-5-(4-trifluoromethyl-phenyl)-pyrazolo[1,5-a]pyrimidin-3-ylethynyl]-thiophene-2-sulfonic acid bis-(2-hydroxy-ethyl)-amide] gave a melting point of 122 °C.

Take `O=S(=O)(NCCO)c1ccc(C#Cc2cnn3c(C(F)(F)F)cc(-c4ccc(C(F)(F)F)cc4)nc23)cc1` [Example 125, N-(2-Hydroxy-ethyl)-4-[7-trifluoromethyl-5-(4-trifluoromethyl-phenyl)-pyrazolo[1,5-a]pyrimidin-3-ylethynyl]-benzenesulfonamide]: the melting point is 206 to 208 °C. The result for `Cc1cc(-c2cc(C(F)F)n3ncc(C#Cc4ccc(S(=O)(=O)N5CCN(C)CC5)s4)c3n2)ccc1Cl` [Example 255, 5-(4-Chloro-3-methyl-phenyl)-7-difluoromethyl-3-[5-(4-methyl-piperazine-1-sulfonyl)-thiophen-2-ylethynyl]-pyrazolo[1,5-a]pyrimidine] reads 191 °C; that for `O=S(=O)(c1cccc(C#Cc2cnn3c(C(F)(F)F)cc(-c4ccc(C(F)(F)F)cc4)nc23)c1)N1CCOCC1` [Example 129, 3-[3-(morpholine-4-sulfonyl)-phenylethynyl]-7-trifluoromethyl-5-(4-trifluoromethyl-phenyl)-pyrazolo[1,5-a]pyrimidine], 203 to 204 °C; that for `CCOc1cc(-c2cc(C(F)(F)F)n3ncc(C#Cc4cccc(S(=O)(=O)NC(C)(C)CO)c4)c3n2)ccc1C(F)(F)F` [Example 41, 3-[5-(3-Ethoxy-4-trifluoromethyl-phenyl)-7-trifluoromethyl-pyrazolo[1,5-a]pyrimidin-3-ylethynyl]-N-(2-hydroxy-1,1-dimethyl-ethyl)-benzenesulfonamide], 209 to 211 °C.

In the case of `NS(=O)(=O)c1ccc(C#Cc2ncn3c(C(F)F)cc(-c4ccc(C(F)(F)F)cc4)nc23)cc1` [Example 276, 4-[4-Difluoromethyl-2-(4-trifluoromethyl-phenyl)-imidazo[1,5-a]pyrimidin-8-ylethynyl]-benzenesulfonamide], the melting point came out at 282 °C. To `NS(=O)(=O)c1ccc(C#Cc2cnn3c(C(F)(F)F)cc(-c4cccc(C(F)(F)F)c4)nc23)cc1` [Example 113, 4-[7-Trifluoromethyl-5-(3-trifluoromethyl-phenyl)-pyrazolo[1,5-a]pyrimidin-3-ylethynyl]-benzenesulfonamide] belongs 264 °C; to `CNS(=O)(=O)c1cccc(C#Cc2cnn3c(C(F)F)cc(-c4ccc(C(F)(F)F)cc4)nc23)c1` [Example 145, 3-[7-Difluoromethyl-5-(4-trifluoromethyl-phenyl)-pyrazolo[1,5-a]pyrimidin-3-ylethynyl]-N-methyl-benzenesulfonamide], 192 to 194 °C. For the compound `NS(=O)(=O)c1cccc(C#Cc2cnn3c(C(F)F)cc(-c4cccc(C(F)(F)F)c4)nc23)c1` [Example 167, 3-[7-Difluoromethyl-5-(3-trifluoromethyl-phenyl)-pyrazolo[1,5-a]pyrimidin-3-ylethynyl]-benzenesulfonamide], the melting point was found to be 199 °C. Take `CC(C)(C)c1cc(-c2ccc(Cl)cc2)nc2c(C#Cc3ccc(S(N)(=O)=O)s3)cnn12` [Example 307, 5-[7-tert.-Butyl-5-(4-chloro-phenyl)-pyrazolo[1,5-a]pyrimidin-3-ylethynyl]-thiophene-2-sulfonic acid amide]: the melting point fell in the range of 253 to 255 °C. The compound `CN1CCN(S(=O)(=O)c2ccc(C#Cc3cnn4c(C(F)F)cc(-c5ccc(C(F)(F)F)cc5)nc34)s2)CC1` [Example 252, 7-Difluoromethyl-3-[5-(4-methyl-piperazine-1-sulfonyl)-thiophen-2-ylethynyl]-5-(4-trifluoromethyl-phenyl)-pyrazolo[1,5-a]pyrimidine] had a melting point of 226 °C.
